Measured values from PMC10983001, “Development of Cytotoxic GW7604-Zeise’s Salt Conjugates as Multitarget Compounds with Selectivity for Estrogen Receptor- Positive Tumor Cells” (Journal of Medicinal Chemistry, 2024).

Columns and labels:
Format in all cases: cell-based, human
SKBr3 cells = assay: Cellular uptake (platinum by HR-CS-AAS), SKBr3; conditions: 8 h
Experimental: (§1) In order to reach the DNA, the complexes must first pass through the cell membrane and penetrate into the nuclei. Therefore, the cellular uptake kinetics of GW7604-Alk-PtCl3 complexes were studied using the example of GW7604-Pent-PtCl3. This complex and Cisplatin, respectively, were incubated at a concentration of 20 μM with MCF-7 or SKBr3 cells. After various time points [i.e., 0 (3 min), 0.5, 1, 2, 4, and 8 h], cell pellets were prepared, and the platinum content was quantified by high-resolution continuum source atomic absorption spectrometry (HR-CS-AAS).[52]
After thawing of the cell/nuclei pellets, they were resuspended in ultrapure water (Siemens LaboStar, Günzburg, Germany; 300 μL) and lyzed with a sonotrode (Bandelin Sonoplus, Berlin, Germany; parameters 20 s, 9 cycles, 80% power). Graphite furnace (GF) AAS was used to quantify the lysates concerning their content of platinum (λ = 265.9450 nm). For this purpose, a contrAA 700 High-Resolution-Continous Source AAS (Analytik Jena, Jena, Germany) was employed, while atomization took place by electrothermal heating of graphite tubes with an inserted platform (Analytik Jena, Jena, Germany). A time–temperature program reported in the literature[25] was followed with minor adjustments. The liquid samples kept in 0.5 mL polystyrene vials (Gesellschaft für Analysentechnik, Salzwedel, Germany) were injected directly into the pyrolytically coated tubes using an MPE 60 autosampler (Analytik Jena, Jena, Germany). Throughout the measurements, argon (Alphagaz 1, 99.999%, Air Liquide, Düsseldorf, Germany) served as the purge and protective gas. The spectrometer was monitored with the ASpect CS software, version 2.3.1.0 (Analytik Jena, Jena, Germany). For all runs, the mean integrated absorbance was determined after three injections of each standard or sample. Calibration was performed by an appropriate dilution of a solution of Cisplatin (Sigma-Aldrich, Taufkirchen, Germany) obtaining five standards (2–10 μg/L, R^2 ≥ 0.982). Each cell/nuclei lysate was quantified concerning its protein content following the method of Bradford[71] in order to express the uptake as the amount of compound (pmol) in the lysate relative to its protein mass (mg). Therefore, solutions of Albumin fraction V (Carl Roth, Karlsruhe, Germany) diluted with ultrapure water were adduced for the calibration (six standards, 50–300 μg/mL, R^2 ≥ 0.996). […] All standards and lysates were measured in duplicate. After incubating for 5 min at rt, the absorbance (λ = 595 nm) was read on a microplate reader (Tecan Safire 2, Männedorf, Switzerland). […]

nuclei of SKBr3 cells = assay: Nuclear uptake (platinum by HR-CS-AAS), SKBr3; conditions: SKBr3, 20 μM, 24 h
Experimental: Fluorescence in the nuclei is not detectable. Therefore, the nuclei were analyzed for their platinum content using HR-CS-AAS.[25]
After thawing of the cell/nuclei pellets, they were resuspended in ultrapure water (Siemens LaboStar, Günzburg, Germany; 300 μL) and lyzed with a sonotrode (Bandelin Sonoplus, Berlin, Germany; parameters 20 s, 9 cycles, 80% power). Graphite furnace (GF) AAS was used to quantify the lysates concerning their content of platinum (λ = 265.9450 nm). For this purpose, a contrAA 700 High-Resolution-Continous Source AAS (Analytik Jena, Jena, Germany) was employed, while atomization took place by electrothermal heating of graphite tubes with an inserted platform (Analytik Jena, Jena, Germany). […] The spectrometer was monitored with the ASpect CS software, version 2.3.1.0 (Analytik Jena, Jena, Germany). For all runs, the mean integrated absorbance was determined after three injections of each standard or sample. […] Each cell/nuclei lysate was quantified concerning its protein content following the method of Bradford[71] in order to express the uptake as the amount of compound (pmol) in the lysate relative to its protein mass (mg). […] All standards and lysates were measured in duplicate. After incubating for 5 min at rt, the absorbance (λ = 595 nm) was read on a microplate reader (Tecan Safire 2, Männedorf, Switzerland). […]

MCF-7 cells = assay: Cellular uptake (platinum by HR-CS-AAS), MCF-7; conditions: MCF-7, 20 μM
Experimental: as §1
After thawing of the cell/nuclei pellets, they were resuspended in ultrapure water (Siemens LaboStar, Günzburg, Germany; 300 μL) and lyzed with a sonotrode (Bandelin Sonoplus, Berlin, Germany; parameters 20 s, 9 cycles, 80% power). Graphite furnace (GF) AAS was used to quantify the lysates concerning their content of platinum (λ = 265.9450 nm). For this purpose, a contrAA 700 High-Resolution-Continous Source AAS (Analytik Jena, Jena, Germany) was employed, while atomization took place by electrothermal heating of graphite tubes with an inserted platform (Analytik Jena, Jena, Germany). A time–temperature program reported in the literature[25] was followed with minor adjustments. The liquid samples kept in 0.5 mL polystyrene vials (Gesellschaft für Analysentechnik, Salzwedel, Germany) were injected directly into the pyrolytically coated tubes using an MPE 60 autosampler (Analytik Jena, Jena, Germany). Throughout the measurements, argon (Alphagaz 1, 99.999%, Air Liquide, Düsseldorf, Germany) served as the purge and protective gas. The spectrometer was monitored with the ASpect CS software, version 2.3.1.0 (Analytik Jena, Jena, Germany). For all runs, the mean integrated absorbance was determined after three injections of each standard or sample. Calibration was performed by an appropriate dilution of a solution of Cisplatin (Sigma-Aldrich, Taufkirchen, Germany) obtaining five standards (2–10 μg/L, R^2 ≥ 0.982). Each cell/nuclei lysate was quantified concerning its protein content following the method of Bradford[71] in order to express the uptake as the amount of compound (pmol) in the lysate relative to its protein mass (mg). Therefore, solutions of Albumin fraction V (Carl Roth, Karlsruhe, Germany) diluted with ultrapure water were adduced for the calibration (six standards, 50–300 μg/mL, R^2 ≥ 0.996). A volume of 20 μL of the Albumin standards or the lysates was added to a 96-well plate (Sarstedt, Nürmbrecht, Germany) and supplemented with 200 μL of Bradford’s reagent (Roti-Nanoquant, Carl Roth, Karlsruhe, Germany; diluted 5-fold with ultrapure water). All standards and lysates were measured in duplicate. After incubating for 5 min at rt, the absorbance (λ = 595 nm) was read on a microplate reader (Tecan Safire 2, Männedorf, Switzerland). The cellular/nuclear uptake (pmol complex/mg protein) is given as the mean ± SD of 2 independent experiments.
For cellular uptake studies, 1.0 × 10^6 of MCF-7 and SKBr3 cells in their exponential growing phase were seeded into 25 cm^2 cell culture flasks and incubated for 24 h under a humidified atmosphere (5% CO2/95% air) at 37 °C. Stock solutions of the platinum complexes (GW7604-Pent-PtCl3, Cisplatin) in DMF were freshly prepared and diluted with complete DMEM containing 10% FCS to the desired concentration [final DMF concentration of 0.1% (v/v), final complex concentration of 20 μM]. The medium in the cell culture flasks was replaced with 3 mL of fresh cell culture medium containing the compounds, and the flasks were incubated under a humidified atmosphere at 37 °C for 3 min, 0.5, 1, 2, 4, and 8 h. Cell pellets were prepared by removing the medium, washing two times with phosphate-buffered saline (PBS), and detaching the cells with Accutase (GE Healthcare, BioSciences, Chicago, IL, USA). Subsequently, cells were pelleted by centrifugation (4 °C, 380g, 3 min). […]

CCC(=C(c1ccc(O)cc1)c1ccc(C=CC(=O)OCCC[CH]2[CH2][Pt-]2([Cl])([Cl])[Cl])cc1)c1ccccc1.[K+] (mixture of isomers) [GW7604-Pent-PtCl3, Potassium trichlorido[η^2-(pent-4-en-1-yl (E)-3-(4-((E/Z)-1-(4-hydroxyphenyl)-2-phenylbut-1-en-1-yl)phenyl)acrylate)]platinate(II)]
platinum amount in SKBr3 relative to MCF-7 cells (SKBr3 cells; 20 μM): about one-twelfth
intracellular platinum amount (SKBr3 cells; SKBr3, 20 μM): 67 pmol/mg
platinum content in the nuclei (nuclei of SKBr3 cells): 96 pmol/mg
intracellular platinum amount (MCF-7 cells; 0.5 h): 130 pmol/mg
intracellular platinum amount (MCF-7 cells; 1 h): 265 pmol/mg
intracellular platinum amount (MCF-7 cells; 2 h): 371 pmol/mg
intracellular platinum amount (MCF-7 cells; 4 h): 659 pmol/mg
intracellular platinum amount (MCF-7 cells; 8 h): 818 pmol/mg
